ChEMBL document CHEMBL5537166, “PROTACs Targeting BRM (SMARCA2) Afford Selective In Vivo Degradation over BRG1 (SMARCA4) and Are Active in BRG1 Mutant Xenograft Tumor Models” (J Med Chem, 2024)

Legend:
Homo sapiens [1] = organism: Homo sapiens; assay: Ratio of binding affinity to VHL/BRM bromodomain (unknown origin) assessed as ternary complex association half life by SPR analysis to binding affinity to VHL/ BRG1 bromodomain (unknown origin) assessed as ternary complex association half life by SPR analysis
[2] = molecular target: T1, von Hippel-Lindau disease tumor suppressor/SWI/SNF-related matrix-associated actin-dependent regulator of chromatin subfamily A member 2 (Homo sapiens, UniProt P51531+P40337)
Target sequence in this assay (P40337 whole entry, looked up): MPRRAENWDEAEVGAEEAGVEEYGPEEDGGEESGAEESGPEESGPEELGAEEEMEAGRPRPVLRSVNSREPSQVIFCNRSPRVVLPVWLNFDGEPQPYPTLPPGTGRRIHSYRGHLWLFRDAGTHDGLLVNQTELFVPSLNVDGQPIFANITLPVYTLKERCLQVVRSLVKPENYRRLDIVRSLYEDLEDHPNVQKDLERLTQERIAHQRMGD
Target sequence in this assay (P51531 whole entry, looked up): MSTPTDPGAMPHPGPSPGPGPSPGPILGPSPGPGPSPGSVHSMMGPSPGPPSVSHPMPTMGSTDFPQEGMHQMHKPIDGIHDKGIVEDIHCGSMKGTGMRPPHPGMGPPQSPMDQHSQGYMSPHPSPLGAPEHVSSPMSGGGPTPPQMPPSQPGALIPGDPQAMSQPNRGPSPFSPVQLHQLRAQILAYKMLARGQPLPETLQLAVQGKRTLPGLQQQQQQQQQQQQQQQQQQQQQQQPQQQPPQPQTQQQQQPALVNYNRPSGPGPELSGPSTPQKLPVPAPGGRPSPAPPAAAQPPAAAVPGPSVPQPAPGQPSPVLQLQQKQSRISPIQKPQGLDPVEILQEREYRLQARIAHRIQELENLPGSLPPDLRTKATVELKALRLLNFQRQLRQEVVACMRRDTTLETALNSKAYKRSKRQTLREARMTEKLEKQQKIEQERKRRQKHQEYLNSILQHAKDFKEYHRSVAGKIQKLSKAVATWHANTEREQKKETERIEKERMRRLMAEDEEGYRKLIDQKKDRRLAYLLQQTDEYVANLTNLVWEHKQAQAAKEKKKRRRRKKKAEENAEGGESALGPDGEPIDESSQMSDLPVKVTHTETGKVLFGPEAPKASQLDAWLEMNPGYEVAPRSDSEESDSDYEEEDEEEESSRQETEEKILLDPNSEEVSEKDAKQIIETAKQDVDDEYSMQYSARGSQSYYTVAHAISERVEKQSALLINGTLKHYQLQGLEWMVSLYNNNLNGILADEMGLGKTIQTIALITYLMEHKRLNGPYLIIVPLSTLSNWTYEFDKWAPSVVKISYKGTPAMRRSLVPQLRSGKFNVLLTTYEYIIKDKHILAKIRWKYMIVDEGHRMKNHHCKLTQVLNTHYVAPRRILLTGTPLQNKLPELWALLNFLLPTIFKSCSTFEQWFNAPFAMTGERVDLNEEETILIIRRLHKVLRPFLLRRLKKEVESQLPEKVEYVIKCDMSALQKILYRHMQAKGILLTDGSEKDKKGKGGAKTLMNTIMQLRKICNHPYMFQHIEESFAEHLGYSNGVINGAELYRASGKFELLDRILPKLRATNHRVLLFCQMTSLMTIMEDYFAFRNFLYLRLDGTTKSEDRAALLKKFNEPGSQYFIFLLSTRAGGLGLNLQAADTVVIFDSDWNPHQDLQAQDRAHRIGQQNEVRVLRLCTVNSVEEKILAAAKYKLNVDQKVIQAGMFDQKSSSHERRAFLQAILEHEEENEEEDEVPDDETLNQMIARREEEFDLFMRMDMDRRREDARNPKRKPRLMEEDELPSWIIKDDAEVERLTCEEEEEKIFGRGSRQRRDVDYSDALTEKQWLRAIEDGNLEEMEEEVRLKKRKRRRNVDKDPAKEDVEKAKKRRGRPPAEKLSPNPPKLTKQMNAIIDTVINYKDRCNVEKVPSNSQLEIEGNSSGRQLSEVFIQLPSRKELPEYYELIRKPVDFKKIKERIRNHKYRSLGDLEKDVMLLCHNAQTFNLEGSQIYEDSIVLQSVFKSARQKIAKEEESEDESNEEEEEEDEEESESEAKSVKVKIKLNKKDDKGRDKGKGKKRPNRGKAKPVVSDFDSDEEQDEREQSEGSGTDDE

NCI-H1944 = assay: Antiproliferative activity against BRM-dependent human NCI-H1944 cells assessed as growth inhibition incubated for 7 days by celltiter glo 2.0 assay; format: functional; conditions: NCI-H1944, 168 h, time 7 day
[3] = molecular target: von Hippel-Lindau disease tumor suppressor/SWI/SNF-related matrix-associated actin-dependent regulator of chromatin subfamily A member 4 (Homo sapiens, UniProt P51532+P40337); assay: PROTAC activity at VHL/ BRG1 in human SW1573 cells assessed as induction of BRG1 degradation incubated for 22 hrs by Western blotting analysis; format: cell-based
von Hippel-Lindau disease tumor suppressor/SWI/SNF-related matrix-associated actin-dependent regulator of chromatin subfamily A member 4, sequence (P51532 whole entry): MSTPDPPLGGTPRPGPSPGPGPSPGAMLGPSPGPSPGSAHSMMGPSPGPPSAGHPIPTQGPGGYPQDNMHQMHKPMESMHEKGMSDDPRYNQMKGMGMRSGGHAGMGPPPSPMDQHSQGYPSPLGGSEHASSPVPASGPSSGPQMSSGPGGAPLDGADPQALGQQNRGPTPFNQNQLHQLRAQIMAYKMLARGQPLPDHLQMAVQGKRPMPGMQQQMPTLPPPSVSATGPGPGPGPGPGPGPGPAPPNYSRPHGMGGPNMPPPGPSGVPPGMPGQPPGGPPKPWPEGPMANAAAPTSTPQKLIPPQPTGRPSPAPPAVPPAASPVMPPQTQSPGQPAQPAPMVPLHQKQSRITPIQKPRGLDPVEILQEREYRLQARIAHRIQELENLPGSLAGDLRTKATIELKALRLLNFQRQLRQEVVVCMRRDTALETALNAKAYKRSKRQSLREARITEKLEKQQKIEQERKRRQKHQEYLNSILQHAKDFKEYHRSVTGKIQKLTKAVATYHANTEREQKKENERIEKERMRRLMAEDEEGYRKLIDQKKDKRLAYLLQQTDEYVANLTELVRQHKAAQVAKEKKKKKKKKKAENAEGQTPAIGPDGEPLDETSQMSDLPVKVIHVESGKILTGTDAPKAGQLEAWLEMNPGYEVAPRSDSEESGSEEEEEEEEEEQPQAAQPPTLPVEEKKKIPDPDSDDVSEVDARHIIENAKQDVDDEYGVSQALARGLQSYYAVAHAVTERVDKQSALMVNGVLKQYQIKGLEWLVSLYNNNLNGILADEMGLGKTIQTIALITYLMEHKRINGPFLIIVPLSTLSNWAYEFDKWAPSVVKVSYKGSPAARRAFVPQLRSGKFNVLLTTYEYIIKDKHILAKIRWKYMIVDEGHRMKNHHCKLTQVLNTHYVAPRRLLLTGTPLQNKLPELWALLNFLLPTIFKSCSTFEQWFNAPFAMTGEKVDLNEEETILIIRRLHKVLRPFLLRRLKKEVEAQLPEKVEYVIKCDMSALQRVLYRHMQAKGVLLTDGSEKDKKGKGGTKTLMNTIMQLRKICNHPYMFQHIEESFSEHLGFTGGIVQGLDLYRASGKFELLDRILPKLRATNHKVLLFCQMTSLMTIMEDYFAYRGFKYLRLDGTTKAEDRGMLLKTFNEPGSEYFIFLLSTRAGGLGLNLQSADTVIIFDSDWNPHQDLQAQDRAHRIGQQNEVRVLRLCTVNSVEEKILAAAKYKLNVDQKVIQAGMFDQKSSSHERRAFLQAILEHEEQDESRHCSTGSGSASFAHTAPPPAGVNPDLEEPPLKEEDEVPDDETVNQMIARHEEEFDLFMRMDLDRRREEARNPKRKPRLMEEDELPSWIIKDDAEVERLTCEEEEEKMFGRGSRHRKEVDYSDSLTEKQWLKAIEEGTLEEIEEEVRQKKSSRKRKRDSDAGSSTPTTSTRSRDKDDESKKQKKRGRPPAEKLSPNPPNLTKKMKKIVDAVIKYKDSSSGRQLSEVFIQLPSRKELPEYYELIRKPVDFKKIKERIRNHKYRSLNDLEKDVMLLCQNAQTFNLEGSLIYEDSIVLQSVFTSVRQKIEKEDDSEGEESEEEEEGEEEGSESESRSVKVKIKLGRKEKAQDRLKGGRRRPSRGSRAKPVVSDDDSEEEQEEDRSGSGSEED
von Hippel-Lindau disease tumor suppressor/SWI/SNF-related matrix-associated actin-dependent regulator of chromatin subfamily A member 4, sequence (P40337 whole entry): as the sequence (P40337 whole entry, looked up) above

[4] = Plasma protein binding in mouse incubated for 15 mins by LC-MS/MS analysis; format: ADME, cell-free; conditions: read-out: PPB (converted)
[5] = Metabolic stability in human liver microsome assessed as hepatic extraction ratio measured upto 60 mins by LC-MS/MS analysis; format: ADME; conditions: liver microsomes
Homo sapiens [6] = organism: Homo sapiens; assay: Ratio of DC50 for VHL/ BRG1 in human SW1573 cells to DC50 for VHL/BRM in human SW1573 cells; format: cell-based
Calu-6 = assay: Antiproliferative activity against human Calu-6 cells assessed as growth inhibition incubated for 7 days by celltiter glo 2.0 assay; format: functional; conditions: Calu-6, 168 h, time 7 day
[7] = molecular target: T1, von Hippel-Lindau disease tumor suppressor/SWI/SNF-related matrix-associated actin-dependent regulator of chromatin subfamily A member 2; assay: PROTAC activity at VHL/BRM in human SW1573 cells assessed as induction of […] incubated for 22 hrs by Western blotting analysis; format: cell-based
Target sequence in this assay (P51531 whole entry): as the sequence (P51531 whole entry, looked up) above
Target sequence in this assay (P40337 whole entry): as the sequence (P40337 whole entry, looked up) above

[8] = Half life in mouse at 1 mg/kg, iv measured upto 60 mins by LC-MS/MS analysis; format: ADME, organism-based; conditions: in vivo
Mus musculus [9] = assay: In-vivo PROTAC activity at BRM/VHL in CD-1 mouse xenografted with human HCC2302 cells at 20 mg/kg, iv measured for 96 hrs; format: functional
[10] = Drug concentration in mouse tumor at 20 mg/kg, ip measured for 96 hrs; format: ADME, organism-based, Neoplasm; conditions: read-out: Ct
[11] = Drug concentration in mouse plasma measured for 24 hrs; format: ADME, cell-free
Mus musculus [12] = assay: In-vivo PROTAC activity at BRM/VHL in CD-1 mouse xenografted with Murine stromal cell line at 20 mg/kg, iv measured for 96 hrs; format: functional
[13] = Clearance in mouse at 1 mg/kg, iv measured upto 60 mins by LC-MS/MS analysis; format: ADME, organism-based; conditions: in vivo, 1 h
[14] = molecular target: T2, SWI/SNF-related matrix-associated actin-dependent regulator of chromatin subfamily A member 2 (Homo sapiens, UniProt P51531); assay: Binding affinity to his-tagged BRM bromodomain (unknown origin) by alpha-LISA assay
T2 sequence (P51531 whole entry): as the sequence (P51531 whole entry, looked up) above

[15] = molecular target: T2, SWI/SNF-related matrix-associated actin-dependent regulator of chromatin subfamily A member 2; assay: Binding affinity to his-tagged BRM bromodomain (unknown origin) assessed as dissociation constant

| IC50 [14] [nM] | SMILES | Ratio (Homo sapiens [1]) | T1/2 [2] [s] | GI50 (NCI-H1944) [nM] | DC50 [3] [nM] | fraction unbound at 0.25 h [4] | hepatic extraction ratio at 1 h [5] | Ratio (Homo sapiens [6]) | GI50 (Calu-6) [nM] | DC50 [7] [nM] | half-life [8] [h] | Activity (Mus musculus [9]) [%] | concentration at 96 h [10] [ng/g] | concentration at 24 h [11] [nM] | Activity (Mus musculus [12]) [%] | clearance [13] [mL/min/kg] | Kd [15] [nM] |
| --- | --- | --- | --- | --- | --- | --- | --- | --- | --- | --- | --- | --- | --- | --- | --- | --- | --- |
|  | Cc1ncsc1-c1ccc([C@H](C)NC(=O)[C@@H]2C[C@@H](O)CN2C(=O)[C@@H](c2cc(OCCN3CCN(CCOc4cc(N5C6CCC5CN(c5cc(-c7ccccc7O)nnc5N)C6)ccn4)CC3)no2)C(C)C)cc1 | 0.33 | 6 | 0.17 | 1.5 | 0.016 | 0.72 | 22 | 7 | 0.068 |  |  |  |  |  |  |  |
|  | Cc1ncsc1-c1ccc(CNC(=O)[C@@H]2C[C@@H](O)CN2C(=O)[C@@H](c2cc(OCCN3CCN(CCOc4cc(N5C6CCC5CN(c5cc(-c7ccccc7O)nnc5N)C6)ccn4)CC3)no2)C(C)C)cc1 |  |  | 3.6 | 9.5 | 0.015 | 0.65 |  | 62 | 0.39 |  |  |  |  |  |  |  |
|  | Cc1ncsc1-c1ccc([C@H](C)NC(=O)[C@@H]2C[C@@H](O)CN2C(=O)[C@@H](c2cc(N3CCC(O[C@H]4C[C@H](Oc5cc(N6C7CCC6CN(c6cc(-c8ccccc8O)nnc6N)C7)ccn5)C4)CC3)no2)C(C)C)cc1 |  |  | 0.3 | 1.8 | 0.019 | 0.14 | 13 | 4.4 | 0.14 | 1.4 | 70 | 175 | 112 | 22 | 9.2 |  |
|  | Cc1ncsc1-c1ccc([C@H](C)NC(=O)[C@@H]2C[C@@H](O)CN2C(=O)[C@@H](c2cc(N3CCC(CN4CCC(Oc5cc(N6C7CCC6CN(c6cc(-c8ccccc8O)nnc6N)C7)ccn5)CC4)CC3)no2)C(C)C)cc1 |  |  | 0.23 | 0.99 | 0.006 | 0.41 |  | 3.7 | 0.053 | 6.7 | 83 | 774 |  | 59 | 6.7 |  |
| 2.7 | COCCOc1cc(N2C3CCC2CN(c2cc(-c4ccccc4O)nnc2N)C3)ccn1 |  |  |  |  |  |  |  |  |  |  |  |  |  |  |  |  |
|  | Cc1ncsc1-c1ccc(CNC(=O)[C@@H]2C[C@@H](O)CN2C(=O)[C@@H](c2cc(OCCOCCOCCOc3cc(N4C5CCC4CN(c4cc(-c6ccccc6O)nnc4N)C5)ccn3)no2)C(C)C)cc1 |  |  |  | 5.9 |  |  | 2.2 |  | 0.76 |  |  |  |  |  |  |  |
|  | Cc1ncsc1-c1ccc([C@H](C)NC(=O)[C@@H]2C[C@@H](O)CN2C(=O)[C@@H](c2cc(OCCN3CCC(O[C@H]4C[C@H](Oc5cc(N6C7CCC6CN(c6cc(-c8ccccc8)nnc6N)C7)ccn5)C4)CC3)no2)C(C)C)cc1 |  |  | > 5000 |  |  |  |  |  |  |  |  |  |  |  |  | 10300 |
|  | Cc1ncsc1-c1ccc([C@H](C)NC(=O)[C@@H]2C[C@@H](O)CN2C(=O)[C@@H](c2cc(N3CCC(CN4CCC(O[C@H]5C[C@H](Oc6cc(N7C8CCC7CN(c7cc(-c9ccccc9)nnc7N)C8)ccn6)C5)CC4)CC3)no2)C(C)C)cc1 |  |  | > 5000 |  |  |  |  |  |  |  |  |  |  |  |  | 8540 |
|  | Cc1ncsc1-c1ccc(CNC(=O)[C@@H]2C[C@@H](O)CN2C(=O)[C@@H](NC(=O)COCCOCCOCCOc2cc(N3C4CCC3CN(c3cc(-c5ccccc5O)nnc3N)C4)ccn2)C(C)(C)C)cc1 |  |  |  | 703 |  |  | 7.8 |  | 32 |  |  |  |  |  |  |  |
|  | Cc1ncsc1-c1ccc([C@H](C)NC(=O)[C@@H]2C[C@H](O)CN2C(=O)[C@@H](c2cc(OCCN3CCC(O[C@H]4C[C@H](Oc5cc(N6C7CCC6CN(c6cc(-c8ccccc8O)nnc6N)C7)ccn5)C4)CC3)no2)C(C)C)cc1 |  |  | > 300 |  |  |  |  |  |  |  |  |  |  |  |  |  |
|  | Cc1ncsc1-c1ccc([C@H](C)NC(=O)[C@@H]2C[C@@H](O)CN2C(=O)[C@@H](c2cc(OCCN3CCN(CCOc4cc(N5C6CCC5CN(c5cc(-c7ccccc7O)nnc5N)C6)ccn4)C[C@@H]3C)no2)C(C)C)cc1 |  |  | 0.72 | 2.7 |  | 0.83 | 25 | 38 | 0.11 |  |  |  |  |  |  |  |
|  | Cc1ncsc1-c1ccc([C@H](C)NC(=O)[C@@H]2C[C@H](O)CN2C(=O)[C@@H](c2cc(N3CCC(CN4CCC(O[C@H]5C[C@H](Oc6cc(N7C8CCC7CN(c7cc(-c9ccccc9O)nnc7N)C8)ccn6)C5)CC4)CC3)no2)C(C)C)cc1 |  |  | > 300 |  |  |  |  |  |  |  |  |  |  |  |  |  |
|  | Cc1ncsc1-c1ccc([C@H](C)NC(=O)[C@@H]2C[C@@H](O)CN2C(=O)[C@@H](c2cc(N3CCN(CCN4CCC(O[C@H]5C[C@H](Oc6cc(N7C8CCC7CN(c7cc(-c9ccccc9O)nnc7N)C8)ccn6)C5)CC4)CC3)no2)C(C)C)cc1 |  |  | 1.3 | 3.2 | 0.034 | 0.4 | 38 | 11 | 0.085 | 13 | 56 | 840 | 108 | 28 | 9.6 |  |
|  | Cc1ncsc1-c1ccc([C@H](C)NC(=O)[C@@H]2C[C@@H](O)CN2C(=O)[C@@H](c2cc(N3CCN(C[C@H]4C[C@H](Oc5cc(N6C7CCC6CN(c6cc(-c8ccccc8O)nnc6N)C7)ccn5)C4)CC3)no2)C(C)C)cc1 |  |  | 0.45 | 1.3 | 0.011 | 0.27 |  | 6.8 | 0.09 | 3.7 | 87 | 75 |  | 53 | 11 |  |
|  | Cc1ncsc1-c1ccc([C@H](C)NC(=O)[C@@H]2C[C@@H](O)CN2C(=O)[C@@H](c2cc(OCC#Cc3ccc(O[C@H]4C[C@H](Oc5cc(N6C7CCC6CN(c6cc(-c8ccccc8O)nnc6N)C7)ccn5)C4)cn3)no2)C(C)C)cc1 |  |  | 0.7 | 5.1 | 0.016 | 0.15 | 19 | 28 | 27 | 1.5 |  |  | 129 |  | 22 |  |
|  | Cc1ncsc1-c1ccc([C@H](C)NC(=O)[C@@H]2C[C@@H](O)CN2C(=O)[C@@H](c2cc(OCCN3CCN(CCOc4cc(N5C6CCC5CN(c5cc(-c7ccccc7O)nnc5N)C6)ccn4)[C@H](C)C3)no2)C(C)C)cc1 |  |  | 0.26 | 0.71 | 0.015 | 0.83 | 13 | 12 | 0.055 |  | 0 | 76 | 22 | 0 |  |  |
|  | Cc1ncsc1-c1ccc([C@H](C)NC(=O)[C@@H]2C[C@@H](O)CN2C(=O)[C@@H](c2cc(N3CCN(CC4CCN(C[C@H]5C[C@H](Oc6cc(N7C8CCC7CN(c7cc(-c9ccccc9O)nnc7N)C8)ccn6)C5)CC4)CC3)no2)C(C)C)cc1 |  |  | 0.72 | 1.4 | 0.035 | 0.15 |  | 10 | 0.062 | 17 | 95 |  |  | 83 | 12 |  |
| 1.2 | COc1cc(N2C3CCC2CN(c2cc(-c4ccccc4O)nnc2N)C3)ccn1 |  |  | > 300 |  |  |  |  | > 300 |  |  |  |  |  |  |  |  |
| 18 | COc1cc(N2CCN(c3cc(-c4ccccc4O)nnc3N)CC2)ccn1 |  |  | > 300 |  |  |  |  | > 300 |  |  |  |  |  |  |  |  |
